By Kd is commonly meant the free concentration of one partner at which half of the binding sites on the other are occupied at equilibrium, for simple one-to-one binding.

The structures appear in SMILES notation.

These results are taken from paper PMC8623273, “Novel N7-Arylmethyl Substituted Dinucleotide mRNA 5′ cap Analogs: Synthesis and Evaluation as Modulators of Translation” (Pharmaceutics, 2021).

Data set [1] has as its target eIF4E (Mus musculus, UniProt P63073). The experiment in a line: time-synchronized fluorescence quenching titration with eIF4E. Type of data set: binding. The note with it: 50 mM Hepes pH 7.2, 134.5 mM KCl, 20 °C, read-out: KD Cap-eIF4E ± SD (value in brackets) (converted). The source says:
High affinity for eIF4E is a desirable feature of cap analogs designed for modulating translation, either as small molecules or as a part of mRNA. Thus, we studied how different substituents at the N7-position affected eIF4E-cap interaction. To this end, we first determined the affinity of m^7GpppG and Bn^7GpppG (1a) using time-synchronized fluorescence quenching titration, a very precise and well-established, but low-throughput method. Next, to evaluate the whole set of the synthesized compounds (1a–1r), we used a high-throughput competitive-binding assay based on a pyrene-labeled fluorescent probe. From this assay we determined relative affinities of the compounds represented by half-effective concentrations (EC50) (Figure 3A–C), which were then used to calculate dissociation constant (KD) values for cap analog–eIF4E complexes using previously reported equations (Table 2, Figure 3D).

In data set [2] the target is T1, hDcpS (Homo sapiens, UniProt Q96C86).
T1 sequence (Q96C86 1-337): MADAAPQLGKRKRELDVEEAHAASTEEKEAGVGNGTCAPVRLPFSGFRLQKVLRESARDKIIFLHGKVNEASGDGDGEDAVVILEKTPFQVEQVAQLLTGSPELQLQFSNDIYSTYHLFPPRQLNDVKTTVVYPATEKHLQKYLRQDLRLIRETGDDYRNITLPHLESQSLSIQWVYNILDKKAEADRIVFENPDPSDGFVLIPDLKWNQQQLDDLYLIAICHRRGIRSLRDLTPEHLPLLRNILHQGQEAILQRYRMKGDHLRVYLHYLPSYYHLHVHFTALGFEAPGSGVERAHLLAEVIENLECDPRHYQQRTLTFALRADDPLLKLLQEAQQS
The class given is in vitro ADME. The note with it: 100 μM compound, 20 nM hDcpS; for hDcpS Assay: fraction of the cap remaining after 1 h incubation with DcpS: 37 °C. The method, then:
Susceptibility to decapping scavenger (DcpS) is one of the factors that could potentially influence the cellular stability of mono- and dinucleotide cap analogs designed as translational inhibitors. Therefore, we studied the susceptibility of arylmethyl-modified dinucleotides to DcpS. The compounds (at 100 μM concentration each) were incubated with 20 nM of hDcpS, and the hydrolysis progress at different time points was analyzed via RP HPLC and compared to m^7GpppG (Figure 4 and Figure S3).
The enzymatic activity of DcpS was assayed at 37 °C in 50 mM Tris∙HCl, pH 7.6 containing 200 mM KCl, 0.5 mM EDTA. DcpS cleavage assays were carried out with 100 μM of the tested compound and 20 nM (monomer) of the hDcpS. Enzymatic reaction progress was examined after 30, 60 and 180 min. As a control, a sample was examined before adding enzyme. Aliquots of 15 μL were terminated by heat inactivation of the enzyme for 3 min at 98 °C. The samples were analyzed via RP HPLC equipped with a Supelcosil LC-18-T column (4.6 × 250 mm, 5 μm, flow rate 1.3 mL/min).

For data set [3], the system named is A549 cells. The experiment in a line: translational efficiency of mRNAs capped with the analogs in A549 cells (Gaussia luciferase). Type of data set: cell-based. How it is done: Finally, we tested the properties of arylmethyl cap analogs as reagents for co-transcriptional mRNA capping. […] Here, we sought to evaluate the translational properties of mRNAs capped with N7-arylmethyl analogs in cultured cells. To that end, the translation properties of transcripts capped with selected analogs were assessed in A549 cells. In vitro transcribed mRNAs encoding Gaussia luciferase, capped with compounds 1a–1k, 1m–1n, and 1p–1r or with reference analogues m^7GpppG and ARCA (m^7GmpppG), were purified via RP HPLC, transfected into A549 cells, and the protein activity (luminescence) was measured using a reporter assay at 72 h post-transfection. The total amount of protein produced over 72 h from each capped RNA was normalized to m^7GpppG RNA (Figure 6 and Figure S4). […] Namely, replacing the N7-methyl group with a benzyl moiety (1a) increased protein production over fivefold in A549 cells compared to m^7GpppG-capped mRNA (Figure 6).
The influence of N7-arylmethylated dinucleotide 5′ cap analogues on the translational properties of HPLC-purified IVT mRNA is shown in Figure S4, Measurements are total protein produced over 72 h by A549 cells transfected with capped mRNAs. Each plot in Figure S4 represents a single experiment consisting of three independent transfections of the cells at the same passage. Bars show mean value normalized to […] ± SD. In the main manuscript, all nine data points from three different cell passages were combined to present cumulative protein expression.

In data set [4] the test system is translation in vitro (RRL). More on the design: method as in PMID 15317978. The note with it: cap incorporated into mRNA; cited from earlier work.

eIF4E, sequence (P63073 whole entry): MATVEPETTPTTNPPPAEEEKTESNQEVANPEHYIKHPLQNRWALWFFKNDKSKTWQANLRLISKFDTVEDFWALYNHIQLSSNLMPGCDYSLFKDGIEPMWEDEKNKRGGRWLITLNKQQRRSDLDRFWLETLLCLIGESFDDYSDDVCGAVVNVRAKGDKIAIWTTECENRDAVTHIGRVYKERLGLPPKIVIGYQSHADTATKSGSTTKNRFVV

Regarding `Nc1nc(O)c2c(n1)n([C@@H]1O[C@H](COP(=O)(O)OP(=O)([O-])OP(=O)(O)OC[C@H]3O[C@@H](n4cnc5c(=O)[nH]c(N)nc54)[C@H](O)[C@@H]3O)[C@@H](O)[C@H]1O)c[n+]2Cc1ccccc1` [1a, Bn^7GpppG], in data set [1], the Kd is 107 nM. Further, in data set [2], the “conversion after 1 h of incubation with hDcpS” value (“conversion after 1 h” below) is on record as “approximately 50%” and the “hDcpS Assay: fraction of the cap remaining after 1 h incubation with DcpS” value worked out at 0.51. Also, in data set [3] (A549 cells, 72 h), the “increase of protein production compared to m^7GpppG-capped mRNA” value is listed as “over fivefold”. For the same compound, the “translation efficiency in vitro relative to m^7GpppG-capped mRNAs” value in data set [4] was “almost twofold higher”.
As to `Cc1cccc(C[n+]2cn([C@@H]3O[C@H](COP(=O)(O)OP(=O)([O-])OP(=O)(O)OC[C@H]4O[C@@H](n5cnc6c(=O)[nH]c(N)nc65)[C@H](O)[C@@H]4O)[C@@H](O)[C@H]3O)c3nc(N)nc(O)c32)c1` [1c, 3-MeBn^7GpppG], in data set [2], the “susceptibility to hDcpS (in words)” value is on record as “very slowly hydrolyzed” and the “hDcpS Assay: fraction of the cap remaining after 1 h incubation with DcpS” value was 0.84.
Take `CC(C)c1ccc(C[n+]2cn([C@@H]3O[C@H](COP(=O)(O)OP(=O)([O-])OP(=O)(O)OC[C@H]4O[C@@H](n5cnc6c(=O)[nH]c(N)nc65)[C@H](O)[C@@H]4O)[C@@H](O)[C@H]3O)c3nc(N)nc(O)c32)cc1` [1e, 4-iPrBn^7GpppG]: in data set [2], the “susceptibility to hDcpS (in words)” value is recorded as “Lower susceptibility to hydrolysis” and the “hDcpS Assay: fraction of the cap remaining after 1 h incubation with DcpS” value was determined as 0.94.
For `Nc1nc(O)c2c(n1)n([C@@H]1O[C@H](COP(=O)(O)OP(=O)([O-])OP(=O)(O)OC[C@H]3O[C@@H](n4cnc5c(=O)[nH]c(N)nc54)[C@H](O)[C@@H]3O)[C@@H](O)[C@H]1O)c[n+]2Cc1ccc(F)cc1` [1g, 4-F-Bn^7GpppG], in data set [2], the “conversion after 1 h” value is roughly 70% and the “hDcpS Assay: fraction of the cap remaining after 1 h incubation with DcpS” value was 0.76.
Consider `Nc1nc(O)c2c(n1)n([C@@H]1O[C@H](COP(=O)(O)OP(=O)([O-])OP(=O)(O)OC[C@H]3O[C@@H](n4cnc5c(=O)[nH]c(N)nc54)[C@H](O)[C@@H]3O)[C@@H](O)[C@H]1O)c[n+]2Cc1ccc(Cl)cc1` [1h, 4-Cl-Bn^7GpppG], for which, in data set [2], the “conversion after 1 h” value is roughly 70% and the “hDcpS Assay: fraction of the cap remaining after 1 h incubation with DcpS” value came to 0.67. Besides, in data set [3] (A549 cells, 72 h), the “increase of protein production compared to ARCA” value turned out to be 2.5 fold.
`Nc1nc(O)c2c(n1)n([C@@H]1O[C@H](COP(=O)(O)OP(=O)([O-])OP(=O)(O)OC[C@H]3O[C@@H](n4cnc5c(=O)[nH]c(N)nc54)[C@H](O)[C@@H]3O)[C@@H](O)[C@H]1O)c[n+]2Cc1ccc(Br)cc1` [1i, 4-Br-Bn^7GpppG]: in data set [2], the “conversion after 1 h” value is recorded as roughly 70% and the “hDcpS Assay: fraction of the cap remaining after 1 h incubation with DcpS” value is on record as 0.60.
For the compound `Nc1nc(O)c2c(n1)n([C@@H]1O[C@H](COP(=O)(O)OP(=O)([O-])OP(=O)(O)OC[C@H]3O[C@@H](n4cnc5c(=O)[nH]c(N)nc54)[C@H](O)[C@@H]3O)[C@@H](O)[C@H]1O)c[n+]2Cc1ccc(F)c(F)c1` [1k, 3,4-di-F-Bn^7GpppG], in data set [2], the “conversion after 1 h” value was roughly 70% and the “hDcpS Assay: fraction of the cap remaining after 1 h incubation with DcpS” value came out at 0.70.
In the case of `Nc1nc(O)c2c(n1)n([C@@H]1O[C@H](COP(=O)(O)OP(=O)([O-])OP(=O)(O)OC[C@H]3O[C@@H](n4cnc5c(=O)[nH]c(N)nc54)[C@H](O)[C@@H]3O)[C@@H](O)[C@H]1O)c[n+]2Cc1ccc(C(F)(F)F)cc1` [1l, 4-CF3-Bn^7GpppG], in data set [2], the “susceptibility to hDcpS (in words)” value is “Lower susceptibility to hydrolysis” and the “hDcpS Assay: fraction of the cap remaining after 1 h incubation with DcpS” value was 0.87.
Consider `Nc1nc(O)c2c(n1)n([C@@H]1O[C@H](COP(=O)(O)OP(=O)([O-])OP(=O)(O)OC[C@H]3O[C@@H](n4cnc5c(=O)[nH]c(N)nc54)[C@H](O)[C@@H]3O)[C@@H](O)[C@H]1O)c[n+]2Cc1ccc([N+](=O)[O-])cc1` [1n, 4-NO2-Bn^7GpppG], for which, in data set [2], the “conversion after 1 h” value is recorded as roughly 70% and the “hDcpS Assay: fraction of the cap remaining after 1 h incubation with DcpS” value is given as 0.75.
`CO[C@@H]1[C@H](O)[C@@H](COP(=O)(O)OP(=O)([O-])OP(=O)(O)OC[C@H]2O[C@@H](n3cnc4c(=O)[nH]c(N)nc43)[C@H](O)[C@@H]2O)O[C@H]1n1c[n+](Cc2ccccc2)c2c(O)nc(N)nc21` [1q, Bn^7GmpppG]: in data set [2], the “susceptibility to hDcpS (in words)” value is “resistant to hDcpS” and the “hDcpS Assay: fraction of the cap remaining after 1 h incubation with DcpS” value is 0.97. In addition, the “change of protein expression of ARCA analog compared to 2'-O-unmethylated counterpart (1q vs 1a, 1r vs 1h)” value in data set [3] (A549 cells, 72 h) is “additional twofold increase”.
As for `CO[C@@H]1[C@H](O)[C@@H](COP(=O)(O)OP(=O)([O-])OP(=O)(O)OC[C@H]2O[C@@H](n3cnc4c(=O)[nH]c(N)nc43)[C@H](O)[C@@H]2O)O[C@H]1n1c[n+](Cc2ccc(Cl)cc2)c2c(O)nc(N)nc21` [1r, 4-Cl-Bn^7GmpppG], in data set [2], the “susceptibility to hDcpS (in words)” value is on record as “resistant to hDcpS” and the “hDcpS Assay: fraction of the cap remaining after 1 h incubation with DcpS” value is recorded as 0.99. In addition, the “change of protein expression of ARCA analog compared to 2'-O-unmethylated counterpart (1q vs 1a, 1r vs 1h)” value in data set [3] (A549 cells, 72 h) is listed as “decreased the protein expression by twofold”.
With `Cn1c[n+]([C@@H]2O[C@H](COP(=O)(O)OP(=O)([O-])OP(=O)(O)OC[C@H]3O[C@@H](n4cnc5c(=O)[nH]c(N)nc54)[C@H](O)[C@@H]3O)[C@@H](O)[C@H]2O)c2nc(N)[nH]c(=O)c21` [m^7GpppG, reference compound], the Kd in data set [1] is 160 nM. Also, in data set [2], the “conversion after 1 h” value is given as “approximately 50%” and the “hDcpS Assay: fraction of the cap remaining after 1 h incubation with DcpS” value is recorded as 0.49. Also, in data set [3] (mRNA capped with the analog, Gaussia luciferase activity in A549 cells 72 h post-transfection, normalized to m^7GpppG RNA), the “Rel. Protein Expression” value came out at 1.0.
